Test results: patent US7872036B2, “3-triazolylphenyl sulfide derivative and insecticide, miticide and nematicide containing it as an active ingredient” (Kumiai Chemical Industry Co., Ltd., priority 2004, dated 2011)

What was measured:
two-spotted spider mites [1] = experiment: Miticidal test on two-spotted spider mites (by dipping); type: in vivo, Tetranychus urticae; parameters: scale not given here; details: dipping of soybean seedlings, active ingredient 500 ppm, 25° C., 13 days
Protocol: (§1) Wettable powders were prepared in accordance with Formulation Example 2 and diluted with water to an active ingredient concentration of 500 ppm. Soybean seedlings which had been inoculated with imago two-spotted spider mites were dipped in the resulting solutions and dried in air. The treated seedlings were placed in a thermostatic chamber at 25° C. for 13 days, and the mite survivors were counted for calculation of the miticidal value by using Equation 2. The test was carried out by one series system.

two-spotted spider mites [2] = experiment: Miticidal test on two-spotted spider mites (by soil drenching); type: in vivo, Tetranychus urticae; parameters: scale not given here; details: active ingredient 100 ppm, 5 ml per 100 g soil, 25° C., 13 days
Protocol: as §1, with “100” for “500”, “100 g of the soil in cups with soybean” for “Soybean”, “drenched with 5 ml of” for “dipped in”, “solutions.” for “solutions and dried in air.”, “[…]” for “thermostatic”, “2.” for “2. The test was carried out by one series system.”

brown planthoppers = experiment: Insecticidal test on brown planthoppers; type: in vivo, Nilaparvata lugens; details: active ingredient 500 ppm, germinating rice immersed, 4th-instar larvae, 25° C., 6 days
Protocol: Wettable powders were prepared in accordance with Formulation Example 2 and diluted with water to an active ingredient concentration of 500 ppm. Germinating rice was immersed in the resulting solutions and put in a plastic cup with a capacity of 60 ml. Ten 4th-instar larvae of brown planthoppers were released to the cup, and the cup was covered and placed in a thermostatic chamber at 25° C. for 6 days, and the survivors were counted for calculation of the insecticidal degree by using Equation 1. The test was carried out by one series system.

[3] = system: southern root-knot nematodes; experiment: Nemastatic test on southern root-knot nematodes; type: in vivo, Meloidogyne sp.; details: diluted solution 20 ppm mixed 1:1 with suspension of second stage larvae, 25° C., 5 days
Protocol: Compounds of the present invention (5 parts) and Tween 20 (tradename for polyoxyethylene sorbitan monolaurate) (1 part) as a spreader were dissolved n N,N-dimethylformamide (94 parts) to prepare 5% emulsifiable concentrates of the compounds of the present invention. Distilled water was added to the emulsifiable concentrates to prepare diluted solutions having a concentration of the compounds of the present invention of 20 ppm. 0.5 ml of the diluted solutions and 0.5 ml of water suspensions containing 100 second stage larvae of southern root-knot nematodes were mixed, and the mixture were placed in a thermostatic chamber at 25° C. for 5 days, and the survivors were counted for calculation of the nemastatic degree by using Equation 3. The test was carried out by two series system.

Row | SMILES | Miticidal value (two-spotted spider mites [1]) | Miticidal value (two-spotted spider mites [2]) | Insecticidal degree (%) (brown planthoppers) | Nemastatic degree (%) [3]
1 | Cc1cc(F)c(-n2nc(SC(F)(F)F)nc2N)cc1[S+]([O-])CC(F)(F)F (centres unmarked) [Compound 32] | 100 | 100 | 100% | 
2 | CCNc1nc(C(F)(F)F)nn1-c1cc([S+]([O-])CC(F)(F)F)c(C)cc1F (centres unmarked) [Compound 60] | 100 | 100 | 100% | 
3 | Cc1cc(F)c(-n2nc(SC(F)F)nc2N)cc1[S+]([O-])CC(F)(F)F (centres unmarked) [Compound 28] | 100 | 100 | 100% | 
4 | Nc1nc(C(F)(F)F)nn1-c1ccc(C(F)F)c([S+]([O-])CC(F)(F)F)c1 (centres unmarked) [Compound 123] | 100 | 100 |  | 98%
5 | Cc1cc(F)c(-n2nc(CC(C)(C)C)nc2N)cc1[S+]([O-])CC(F)(F)F (centres unmarked) [Compound 107] | 100 | 100 |  | 
6 | CC(=O)Nc1nc(SCC(F)(F)F)nn1-c1cc([S+]([O-])CC(F)(F)F)c(C)cc1F (centres unmarked) [Compound 155] | 100 | 100 | 90% | 
7 | [O-][S+](CC(F)(F)F)c1cc(-n2cnc(C(F)(F)F)n2)ccc1CF (centres unmarked) [b, reference compound] | 99 | 0 |  | 
8 | CCc1nc(N)n(-c2cc([S+]([O-])CC(F)(F)F)c(C)cc2F)n1 (centres unmarked) [Compound 117] | 100 | 100 | 100% | 
9 | Cc1cc(F)c(-n2nc(SC(F)(F)F)nc2NC(=O)C(F)(F)F)cc1SCC(F)(F)F [Compound 99] | 100 | 100 | 100% | 
10 | Cc1cc(F)c(-n2nc(C(C)(C)C#N)nc2N)cc1[S+]([O-])CC(F)(F)F (centres unmarked) [Compound 104] | 100 | 100 |  | 
11 | CCC(C)(C)c1nc(N)n(-c2cc([S+]([O-])CC(F)(F)F)c(C)cc2F)n1 (centres unmarked) [Compound 119] | 100 | 100 | 90% | 
12 | Cc1cc(F)c(-n2nc(C(C)C)nc2N)cc1[S+]([O-])CC(F)(F)F (centres unmarked) [Compound 111] | 100 | 100 | 100% | 
13 | O=Cc1ccc(-n2cnc(C(F)(F)F)n2)cc1[S+]([O-])CC(F)(F)F (centres unmarked) [a, reference compound] | 100 | 0 |  | 
14 | Cc1cc(F)c(-n2nc(C(F)(F)F)nc2NC(=O)N(C)C)cc1[S+]([O-])CC(F)(F)F (centres unmarked) [Compound 84] | 100 | 100 | 100% | 
15 | Cc1cc(F)c(-n2nc(C(C)(C)C)nc2N)cc1[S+]([O-])CC(F)(F)F (centres unmarked) [Compound 145] | 100 | 100 |  | 
16 | Cc1ccc(-n2nc(C(F)(F)F)nc2NC(=O)C(F)(F)F)cc1[S+]([O-])CC(F)(F)F (centres unmarked) [Compound 153] | 100 | 100 | 100% | 
17 | Cc1cc(F)c(-n2nc(SC(F)(F)C(F)(F)F)nc2N)cc1[S+]([O-])CC(F)(F)F (racemic) [Compound 177] | 100 | 100 |  | 
18 | CNC(=O)Nc1nc(C(F)(F)F)nn1-c1cc([S+]([O-])CC(F)(F)F)c(C)cc1F (centres unmarked) [Compound 169] | 100 | 100 | 100% | 
19 | Cc1cc(F)c(-n2nc(C(F)(F)F)nc2N)cc1[S+]([O-])CC1CC1 (centres unmarked) [Compound 4] | 100 | 100 | 90% | 
20 | Cc1cc(C)c([S+]([O-])CC(F)(F)F)cc1-n1nc(C(F)(F)F)nc1N (centres unmarked) [Compound 56] | 100 | 100 |  | 
21 | CC(=O)Nc1nc(C(F)(F)F)nn1-c1cc([S+]([O-])CC(F)(F)F)c(C)cc1F (centres unmarked) [Compound 76] | 100 | 100 | 100% | 
